Results as given in EP4144350B1, “TREATMENT OR PREVENTION OF VASCULAR MALFORMATION” (Universitätsmedizin Greifswald, priority 2021, dated 2023).

Assays:
Assay type in all cases: cell-based, human
CCM3^+/+ CI-huVECs = test: CyQuant cell proliferation assay combined with mutant allele frequencies, co-culture (wild-type cells); details: six days
Experimental: Clonally expanded CI-huVEC lines with biallelic loss-of-function variants in the first coding exon of CCM3 have been described before or were established according to a published CRISPR/Cas9 genome editing protocol. Blood outgrowth endothelial cells (BOECs) were cultured in EGM-2 medium (Lonza, Basel, Switzerland) supplemented with 18 % FCS. With the approval of the local ethics committee (University Medicine Greifswald, Germany; No.: BB 047/14a), CCM1^-/- BOECs had been established previously from CCM1^+/- BOECs of a CCM1 mutation carrier with CRISPR/Cas9 genome editing. Mutant and wild-type ECs were co-cultured in 96-well plates under standard culture conditions with the indicated mutant-to-wild-type ratios. 2500 cells were seeded per well. The proliferation rate of mutant and wild-type ECs in monoculture was quantified with the CyQuant® Cell Proliferation Assay Kit (C7026, Thermo Fisher Scientific). To discriminate the proliferation rates of CCM3^+/+ and CCM3^-/- CI-huVEC in co-culture, the CyQuant® Cell Proliferation Assay results were combined with mutant allele frequencies that had been determined by amplicon deep sequencing. To analyse their sensitivity to apoptosis, mutant and wild-type ECs were seeded in 96-well plates with 15.000 cells per well, and treated with staurosporine ([…], Sigma-Aldrich, St. Louis, MO, USA) 24 h later. […]

CI-huVECs = test: Bright-field microscopy of EC morphology after compound treatment; details: library screening follow-up (Fig. 14)
[1] = test system: CCM3^+/+ and CCM3^-/- CI-huVECs; test: Cell viability after compound treatment; details: 72 h after treatment (Fig. 15)
caspase-3 = test: Caspase-3 activity assay
Experimental: The proliferation rate of mutant and wild-type ECs in monoculture was quantified with the CyQuant® Cell Proliferation Assay Kit (C7026, Thermo Fisher Scientific). To discriminate the proliferation rates of CCM3^+/+ and CCM3^-/- CI-huVEC in co-culture, the CyQuant® Cell Proliferation Assay results were combined with mutant allele frequencies that had been determined by amplicon deep sequencing. To analyse their sensitivity to apoptosis, mutant and wild-type ECs were seeded in 96-well plates with 15.000 cells per well, and treated with staurosporine (S440, Sigma-Aldrich, St. Louis, MO, USA) 24 h later. The Caspase-3 DEVD-R110 Fluorometric HTS Assay Kit (30009, Biotium, Fremont, CA, USA), the Cell Meter™ Caspase 8 Activity Apoptosis Assay Kit (22798, AAT Bioquest, Sunnyvale, CA, USA), and the Cell Meter™ Caspase 9 Activity Apoptosis Assay Kit (22799, AAT Bioquest) were used following the manufacturer's instructions.

CCM3^-/- CI-huVECs = test: Cell cycle analysis by flow cytometry; details: 10 µM, 72 h; DMSO 75.9 %
Experimental: Plating efficiencies were determined as follows: CCM3^+/+ and CCM3^-/- CI-huVEC were seeded in 6-well-plates with either 100 or 250 cells per well. Colonies fixed and stained after eight days with a solution of glutaraldehyde (G6257, Sigma-Aldrich, final concentration 6 %) and crystal violet (HT901, Sigma-Aldrich, final concentration 0.5 %). The plating efficiency was defined as the ratio between the number of colonies and the number of plated cells. A cell cycle analysis kit (MAK344, Sigma-Aldrich) was used to determine cell cycle profiles by flowcytometry (LSRII Flow Cytometer System, BD Biosciences, San Jose, CA, USA). One day after plating, cells were synchronised for 24 h with ECGM supplemented with 0.1 % FCS. Prior to FACS analysis, cells were incubated with ECGM + 10 % FCS for another 24 h or treated with 10 µM NSC59984 for 72 h. Data were analysed with FlowJo v10.7.1 (BD Biosciences).

[2] = test system: CCM1^-/- BOECs in co-culture with CCM1^+/- BOECs; test: Co-culture of patient-specific BOECs, frequency of second knockout allele; details: 10 µM (Fig. 23)
Experimental: Clonally expanded CI-huVEC lines with biallelic loss-of-function variants in the first coding exon of CCM3 have been described before or were established according to a published CRISPR/Cas9 genome editing protocol. Blood outgrowth endothelial cells (BOECs) were cultured in EGM-2 medium (Lonza, Basel, Switzerland) supplemented with 18 % FCS. With the approval of the local ethics committee (University Medicine Greifswald, Germany; No.: BB 047/14a), CCM1^-/- BOECs had been established previously from CCM1^+/- BOECs of a CCM1 mutation carrier with CRISPR/Cas9 genome editing. Mutant and wild-type ECs were co-cultured in 96-well plates under standard culture conditions with the indicated mutant-to-wild-type ratios. 2500 cells were seeded per well.
The fraction of mutant alleles in co-culture were analysed by amplicon deep sequencing or T7EI cleavage assay. In brief, genomic target regions were first amplified by PCR. For T7E1 cleavage assays, heteroduplexes were formed and digested with T7EI enzyme (New England Biolabs, Frankfurt am Main, Germany). Cleavage products were visualised by gel electrophoresis and analysed with the Image Lab software (v6.0, Bio-Rad, Hercules, CA, USA). For NGS analysis, sequencing adapters and individual barcodes were introduced in a second round of PCR [7]. […] The data were analysed with the SeqNext software (JSI Medical Systems, Ettenheim, Germany).

[3] = test system: CCM3^-/- cells in fusion organoids; test: hiPSC-derived vascular fusion organoids, fluorescence imaging; details: 10 µM, continuous culture, imaged day 5, 7, 10
Experimental: hiPSCs were differentiated into vascular organoids according to the protocol of Wimmer and colleagues. Briefly, 800,000 hiPSCs were seeded in ultra-low attachment 6-well plates (Corning) in aggregation medium for 2 days until aggregates had formed. On day 0, mesodermal induction was initiated with CHIR99021 (Tocris Bioscience, Bristol, United Kingdom) and BMP-4 (Miltenyi Biotec) in N2B27 medium. Supplementation of VEGF-A (PeproTech, Inc., Rocky Hill, NJ, USA) and forskolin (Sigma-Aldrich) on day 3 induced vascular differentiation. On day 5, vascular aggregates were embedded in a collagen I-Matrigel matrix. VEGF-A, FGF-2 (Miltenyi Biotec), and FBS (Thermo Fisher Scientific) enriched StemPro-34 medium (Thermo Fisher Scientific) was added for vessel sprouting. Vascular network extraction was performed on day 10.

- EC morphology / endothelial phenotype (CI-huVECs): minimal effects on EC morphology
- Caspase-3 activities (caspase-3; treatment for 24 h, CCM3^+/+ and CCM3^-/- CI-huVECs (Fig. 16)): did not increase caspase-3 activities
SMILES: CN1CCN(C(=O)/C=C/c2ccc([N+](=O)[O-])o2)CC1 [NSC59984, (E)-1-(4-methylpiperazin-1-yl)-3-(5-nitrofuran-2yl)prop-2-en-1-one]
- Proliferation rate of wild-type ECs (CCM3^+/+ CI-huVECs; 10 µM): 295%
- Proliferation rate of wild-type ECs (CCM3^+/+ CI-huVECs; starting value of the decrease, concentration not printed (by parallel 1 µM)): 761%
- Cell viability differences between CCM3^+/+ and CCM3^-/- CI-huVECs [1]: No cell viability differences
- Apoptosis / caspase-3 activation (caspase-3; Fig. 16): induced apoptosis at a tolerable level
- Cells in G0/G1 (G0/G1 arrest) (CCM3^-/- CI-huVECs): 87.7%
- Expansion of CCM1^-/- BOECs in co-culture [2]: significantly blocked the expansion of CCM1^-/- BOECs
- Proliferation of CCM3^-/- cells in fusion organoids [3]: inhibited the proliferation of CCM3^-/- cells in fusion organoids
